Paper PMC4211885 (PLoS ONE, 2014)
Entries after “also recorded” stand apart in the source; their conditions may differ.

Key:
[1] = target: OA/TAMac receptor (Macrobrachium rosenbergii, UniProt D9U2B9); experiment: Modulation of the transient calcium-dependent chloride current ICl-T in OA/TAMac-injected oocytes (voltage step protocol); assay type: cell-based; details: for Effect on ICl-T at lower concentration: 1 µM and 100 µM, 8 minute applications, n = 5 at each concentration; for Effect on ICl-T during prolonged application: 1 mM (high concentration), n = 4 oocytes
OA/TAMac receptor, sequence (D9U2B9 entry or part of it): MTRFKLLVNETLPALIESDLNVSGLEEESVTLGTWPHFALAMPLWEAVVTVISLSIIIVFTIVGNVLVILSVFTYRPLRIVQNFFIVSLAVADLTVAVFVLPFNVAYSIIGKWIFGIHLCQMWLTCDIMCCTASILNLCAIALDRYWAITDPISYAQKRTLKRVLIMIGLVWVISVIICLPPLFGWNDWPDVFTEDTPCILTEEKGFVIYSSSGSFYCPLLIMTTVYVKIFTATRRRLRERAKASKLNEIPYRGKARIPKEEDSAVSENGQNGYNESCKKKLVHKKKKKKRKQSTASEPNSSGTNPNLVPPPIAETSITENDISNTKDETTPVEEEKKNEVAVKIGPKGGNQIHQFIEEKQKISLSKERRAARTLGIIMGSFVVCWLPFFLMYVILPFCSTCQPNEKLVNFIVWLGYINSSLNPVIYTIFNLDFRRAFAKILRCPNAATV
Excerpt: The fluctuations in holding current that we refer to as ID have often been referred to as the calcium-dependent chloride current. These currents are in fact complex and are known to contain multiple poorly defined components that arise from a number of unidentified potassium, chloride and mixed cationic channels, [47]. For this reason, we tested the effect of tyramine and octopamine on one of the better characterized components, the transient calcium-dependent chloride current that we refer to as ICl-T after. This current, which has been referred to as Iout, [54], ICl-2 [55] or ICl1-T [53], can be clearly isolated from ID using a specific pulse protocol (Fig. 6A). Furthermore, ICl-T is known to increase in response to inositol 1,4,5-triphosphate (IP3) injection, [55]. Modulation of this current therefore provides additional insight into how IP3 related pathways might be affected by transmitter application.
Figure 6 Differential modulation of a transient chloride current by tyramine (TA) and octopamine (OA). ICl-T is an endogenous calcium-dependent transient chloride current coupled to extra-celluar calcium influx. It is thought to arise from a single type of channel. […] (A) The voltage command protocol used to measure ICl-T is shown with an example current. The first step to +40 mV from the holding potential of −20 mV evokes no ICl-T and provides the baseline. The hyperpolarizing step to −140 mV induces calcium influx that causes ICl-T to appear during the second step to +40 mV [53]. The amplitude of ICl-T was measured as the difference between the first step and the peak of the transient current evoked by the second. (B) Measurements of ICl-T were taken every minute during the ID evoked by long applications of 1 mM TA and 1 mM OA. The vertical lines are the currents evoked by the voltage command pulse used to measure ICl-T (as shown in A). Their true amplitude was clipped from the image during figure preparation. Below the trace individual ICl-T transients are shown. Δ ICl-T is the difference in amplitude of these transients measured at different time points. The amplitude of ICl-T increases during continuous TA application and decreases during continuous OA application. There was a 38 minute washout period between the TA and OA applications. […]
ICl-T was measured under two-electrode voltage-clamp by hyperpolarizing the oocyte to −140 mV after a step to +40 mV and stepping back to +40 mV (Fig. 6A). […] ICl-T is measured instead of Icat because ICl-T is a pure chloride conductance that likely arises from one ion channel population while Icat is complex arising from more than one conductance.
We monitored ICl-T over the course of extended transmitter applications using the described pulse protocol. […]

[2] = tested on: Uninjected oocytes; experiment: Direct-current response of uninjected oocytes (control); assay type: cell-based, Xenopus laevis; details: n = 5
Description: We first tested receptor-injected oocytes for the occurrence of a response to biogenic amines. Applications of tyramine, octopamine, or dopamine produced an inward ID, typically ranging between 50 nA and 500 nA, under a constant holding potential of −60 mV. […] The amplitude of tyramine evoked ID at concentrations below 10 µM was greater than octopamine or dopamine within the same oocyte (Figs. 2A and S2). […] Instead it would rise and then begin to decline prior to the removal of agonist (dotted line). However, at high concentrations, above 100 µM, ID appeared to approach a stable plateau (Fig. 2B).
Recordings were performed 1–3 days post-injection at room temperature (20–22°C). Currents were recorded under two-electrode voltage clamp using an Axoclamp 900a amplifier (Molecular Devices LLC, CA USA). A digidata 1440a analog to digital converter was used in conjunction with pCLAMP 10 software (Molecular Devices) for data acquisition and to generate voltage commands. For each step protocol or chemical application data were typically sampled at 5 KHz and filtered digitally at 1 KHz. For the duration of each experiment the current was also continuously sampled at 1 kHz using a separate minidigi 1A digitizer (Molecular Devices). Glass microelectrodes were pulled from filamented 1.2 mm thin wall borosilicate glass (World Precision Instruments, Sarasota, FL) using a Sutter Instruments P-97 puller. They were filled with 3 M KCl and had resistances of 0.8–2.0 MΩ. A silver chloride pellet immersed in 3 M KCl and connected to the bath via a 3% agar bridge made with 3 M KCl was used as the reference electrode.
Supplementary file pone.0111314.s001.tif: Figure S1 Direct-current (ID) responses are specifically evoked by agonists in oocytes injected with OA/TAMac only. […] The trace is representative of an experimental set of 5 oocytes. Additional uninjected oocytes were tested with various experimental sets throughout the course of this study. (B) A typical preliminary test of agonist sensitivity. Injection of OA/TAMac cRNA alone is sufficient to confer sensitivity to OA. […] Applications are approximately 30 seconds in the upper trace. (C) The response of clonidine (CN), synephrine (SN), and OA within a single OA/TAMac injected oocyte. […] All drugs are applied for 30 seconds each as indicated by black rectangles. Agonist evoked currents are measured within oocytes relative to the octopamine response at 50 µM. The comparison is made to OA because the amplitude of the tyramine response becomes small at concentrations above 10 µM. This is due to a mechanistically undefined process not seen with any other agonist we tested. Note that TA is the first compound applied to a naïve oocyte in this example. […] (TIF) Click here for additional data file.

Row | SMILES | Effect on ICl-T at lower concentration [1] | Effect on ICl-T during prolonged application [1] | Response of uninjected oocytes [2] | Response of uninjected oocytes ([2]; listed as OA) | Response of uninjected oocytes ([2]; listed as TA)
1 | NCC(O)c1ccc(O)cc1 (racemic) [octopamine, (+/−)-octopamine] | no apparent effect | reversibly decreases; also recorded: decreased | no response | do not respond | 
2 | NCCc1ccc(O)cc1 [tyramine] | increase | reversibly increases; also recorded: increased | no response |  | do not respond
